Measured values published in PubChem BioAssay AID2060502 (Molecular Pharmacology Branch, DTP, NCI, 2025).

Tested on: 885724-159-R-J1-PDC complex spheroid viability
Assay: Anticancer human tumor 885724-159-R-J1-PDC patient-derived pancreatic adenocarcinoma cell line growth inhibition [GQUAD]
Conditions: for IC50: curve of first compound; for viability, T/C: stronger effect = lower value
Outline: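 Multi-cell-type spheroids of tumor cells with HUVEC and mesenchymal stem cells, treated with drug combinations. Concentrations descend in half-log steps from near clinical Cmax, or from 10 microM where Cmax is unknown; viability read-out.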

[1] = second compound 0.0316 µM, first compound 0.0316 µM
[2] = second compound 0.0316 µM, first compound 0.1 µM
[3] = second compound 0.0316 µM, first compound 0.316 µM
[4] = second compound 0.0316 µM, first compound 1 µM
[5] = second compound 0.0316 µM, first compound 3.16 µM
[6] = second compound 0.0316 µM, first compound 10 µM
[7] = second compound 0.1 µM, first compound 0.0316 µM
[8] = second compound 0.1 µM, first compound 0.1 µM
[9] = second compound 0.1 µM, first compound 0.316 µM
[10] = second compound 0.1 µM, first compound 1 µM
[11] = second compound 0.1 µM, first compound 3.16 µM
[12] = second compound 0.1 µM, first compound 10 µM
[13] = second compound 0.316 µM, first compound 0.0316 µM
[14] = second compound 0.316 µM, first compound 0.1 µM
[15] = second compound 0.316 µM, first compound 0.316 µM
[16] = second compound 0.316 µM, first compound 1 µM
[17] = second compound 0.316 µM, first compound 3.16 µM
[18] = second compound 0.316 µM, first compound 10 µM
[19] = second compound 1 µM, first compound 0.0316 µM
[20] = second compound 1 µM, first compound 0.1 µM
[21] = second compound 1 µM, first compound 0.316 µM
[22] = second compound 1 µM, first compound 1 µM
[23] = second compound 1 µM, first compound 3.16 µM
[24] = second compound 1 µM, first compound 10 µM
[25] = second compound 3.16 µM, first compound 0.0316 µM
[26] = second compound 3.16 µM, first compound 0.1 µM
[27] = second compound 3.16 µM, first compound 0.316 µM
[28] = second compound 3.16 µM, first compound 1 µM
[29] = second compound 3.16 µM, first compound 3.16 µM
[30] = second compound 3.16 µM, first compound 10 µM
[31] = second compound 10 µM, first compound 0.0316 µM
[32] = second compound 10 µM, first compound 0.1 µM
[33] = second compound 10 µM, first compound 0.316 µM
[34] = second compound 10 µM, first compound 1 µM
[35] = second compound 10 µM, first compound 3.16 µM
[36] = second compound 10 µM, first compound 10 µM
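Note: spheroids exposed to agents for seven days before readout.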
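Throughout, for viability, T/C: percent of vehicle control viability where 100% = DMSO wells.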

Compound `CC(C)n1c(=O)n(C)c2cnc3cc(F)c(-c4ccc(OCCCN5CCCCC5)nc4)cc3c21` + Cc1[nH]c2ccc(F)cc2c1-c1nc2c3cccnc3c3ncccc3c2[nH]1 has an IC50 (second compound 0.0316 µM) of over 10000 nM, an IC50 (second compound 0.1 µM) of over 10000 nM and an IC50 (second compound 0.316 µM) of over 10000 nM. It also gave an IC50 (second compound 1 µM) of over 10000 nM, an IC50 (second compound 3.16 µM) of 133 nM and an IC50 (second compound 10 µM) of over 10000 nM. It also gave a viability, T/C [1] of 107%, a viability, T/C [2] of 95.2% and a viability, T/C [3] of 98.2%. The viability, T/C [4] was 92.9%, the viability, T/C [5] was 84.6% and the viability, T/C [6] was 83.2%. It also gave a viability, T/C [7] of 100%, a viability, T/C [8] of 99.2% and a viability, T/C [9] of 100%. It also gave a viability, T/C [10] of 91.3%, a viability, T/C [11] of 94.5% and a viability, T/C [12] of 78.9%. For the same compound, the viability, T/C [13] was 93.4%, the viability, T/C [14] was 102% and the viability, T/C [15] was 92.5%. The viability, T/C [16] was 79.8%, the viability, T/C [17] was 81.6% and the viability, T/C [18] was 74.2%. The viability, T/C [19] was 74.3%, the viability, T/C [20] was 69.2% and the viability, T/C [21] was 75%. For the same compound, the viability, T/C [22] was 70%, the viability, T/C [23] was 68.3% and the viability, T/C [24] was 59.5%. The viability, T/C [25] was 54.7%, the viability, T/C [26] was 43.4% and the viability, T/C [27] was 53.8%. For the same compound, the viability, T/C [28] was 42.9%, the viability, T/C [29] was 38.5% and the viability, T/C [30] was 25.3%. It also gave a viability, T/C [31] of 69.9%, a viability, T/C [32] of 71.6% and a viability, T/C [33] of 79.8%. The viability, T/C [34] was 76.1%, the viability, T/C [35] was 72.4% and the viability, T/C [36] was 63.2%.

`CC1COCCN1c1cc(C2(O)CC3CCC(C2)O3)c2cnn(-c3ccn[nH]3)c2n1` (centres undefined) + Cc1[nH]c2ccc(F)cc2c1-c1nc2c3cccnc3c3ncccc3c2[nH]1 showed an IC50 (second compound 0.0316 µM) of 1890 nM, an IC50 (second compound 0.1 µM) of 1200 nM and an IC50 (second compound 0.316 µM) of 865 nM. For the same compound, the IC50 (second compound 1 µM) was 432 nM, the IC50 (second compound 3.16 µM) was under 31.6 nM and the IC50 (second compound 10 µM) was 512 nM. For the same compound, the viability, T/C [1] was 97.7%, the viability, T/C [2] was 77.5% and the viability, T/C [3] was 68.3%. For the same compound, the viability, T/C [4] was 55.2%, the viability, T/C [5] was 46% and the viability, T/C [6] was 37.8%. It also gave a viability, T/C [7] of 96.6%, a viability, T/C [8] of 88% and a viability, T/C [9] of 74.1%. For the same compound, the viability, T/C [10] was 50.1%, the viability, T/C [11] was 42.7% and the viability, T/C [12] was 37.7%. It also gave a viability, T/C [13] of 91%, a viability, T/C [14] of 79% and a viability, T/C [15] of 62.4%. The viability, T/C [16] was 47.3%, the viability, T/C [17] was 41.6% and the viability, T/C [18] was 35.5%. For the same compound, the viability, T/C [19] was 79.5%, the viability, T/C [20] was 66% and the viability, T/C [21] was 54.2%. For the same compound, the viability, T/C [22] was 38.1%, the viability, T/C [23] was 37.4% and the viability, T/C [24] was 25.4%. For the same compound, the viability, T/C [25] was 41.2%, the viability, T/C [26] was 29.9% and the viability, T/C [27] was 41.1%. It also gave a viability, T/C [28] of 22.6%, a viability, T/C [29] of 20.1% and a viability, T/C [30] of 8.51%. For the same compound, the viability, T/C [31] was 69.6%, the viability, T/C [32] was 69% and the viability, T/C [33] was 51%. It also gave a viability, T/C [34] of 44.4%, a viability, T/C [35] of 33.1% and a viability, T/C [36] of 24.1%.
